The source of these data is patent US20250302767A1, “TREATMENT OF CANCER AND AUTOIMMUNE DISORDERS USING NANO POLYMERS OF HISTONE DEACETYLASE INHIBITORS” (University of Virginia Patent Foundation, priority 2021, published 2025).

Read-outs that look alike come from different tables or passages of the source.

One data set relates to PTCL. To be noted: cited from earlier work; for Outcomes: ORR / Outcomes: CR / Outcomes: DOR: patients with PTCL; for response, share of patients: R/R PTCL.
The test system of another data set is FEPD (ALCL). As to the kind of experiment: Cell viability assay ([…]-GLO). It is filed as cell-based. To be noted: Homo sapiens, 60 h, read-out: IC50 in nM at 60 Hours. From the text: (§1) Cell lines. The T cell lymphoma cell lines HH and H9 (both Cutaneous T Cell Lymphomas; CTCL), SUP-T1 (T Cell Lymphoblastic Lymphoma) and FEPD and SUP-M2 (ALK-negative anaplastic large cell lymphoma; ALCL), were obtained from ATCC. NKL (Natural killer cell lymphoblastic leukemia/lymphoma) cell lines (Robertson et al., 1996) were also employed. The cutaneous melanoma cell line FM3-29 was obtained from DSMZ. The Large Granular Lymphocyte (LGL) leukemia cell line TL-1 was generated in the Loughran lab. All cells were grown at 37° C. and 5% CO2 in a humidified incubator. Cell lines were authenticated by short tandem repeat DNA profiling (Genetica DNA laboratories) and tested for mycoplasma contamination routinely using the MycoAlert PLUS detection kit (Lonza #LT07-710). Experiments were performed within 6 weeks of thawing. HH, H9, SUP-T1, FEPD and FM3-29 cells were cultured in RPMI-1640 (Corning, Glendale, AZ) with 10% FBS (Thermofisher Scientific, Waltham, MA). SUP-M2 cells were cultured in RPMI-1640 with 20% FBS. TL-1 cells were cultured in RPMI-1640 with 10% FBS and supplemented with 200 U/ml IL-2 (Miltenyi Biotec cat #130-097-743). NKL cells were cultured in RPMI-1640 with 10% FBS and supplemented with 100 U/ml IL-2.
(§2) Cell Viability Assay. For cell viability, cell lines were plated at the appropriate cell densities (SUP-T1, HH, NKL and TL-1 at 100,000 cells/ml/well and H9, FEPD SUP-M2 and FM3-29 at 50,000 cells/ml/well) in a 48-well plate. […] Cells were harvested after 24, 60, and 96 hours of incubation at 37° C., 5% CO2 and assayed for cell viability, using […]-GLO® (Promega) luminescence reagent, by quantifying the amount of ATP present. After 15 minutes of adding […]-GLO® reagent at a 1:1 ratio, luminescence was read on a GLOMAX® Discover Microplate Reader (Promega). Luminescence was normalized to untreated control, which was defined as 100% viability.

In data set [1] the test system is SUP-T1 (T Cell Lymphoblastic Lymphoma). In words: Cell viability assay ([…]-GLO). It is filed as cell-based. The following applies: Homo sapiens, SUP-T1, 60 h, read-out: IC50 in nM at 60 Hours.
Excerpt: as §1, §2

The next data set concerns TL-1 (LGL leukemia). In words: Cell viability assay ([…]-GLO). The format is cell-based. The following applies: Homo sapiens, 60 h, read-out: IC50 in nM at 60 Hours.
Excerpt: as §1, §2

Data set [2] relates to NKL (Natural killer cell lymphoblastic leukemia/lymphoma). In words: Cell viability assay ([…]-GLO). The format is cell-based. To be noted: Homo sapiens, 60 h, read-out: IC50 in nM at 60 Hours.
Excerpt: as §1, §2

In the next data set the test system is H9 (CTCL). In words: Cell viability assay ([…]-GLO). The format is cell-based. The following applies: Homo sapiens, 60 h, read-out: IC50 in nM at 60 Hours.
Excerpt: as §1, §2

The subject of another data set is HH (CTCL). In words: Cell viability assay ([…]-GLO). To be noted: Homo sapiens, 60 h, read-out: IC50 in nM at 60 Hours. The format is cell-based.
Excerpt: as §1, §2

Another data set deals with SUP-M2 (ALK-ALCL). In words: Cell viability assay ([…]-GLO). It is filed as cell-based. The following applies: Homo sapiens, SUP-M2, 60 h, read-out: IC50 in nM at 60 Hours.
Excerpt: as §1, §2

Data set [3] concerns FM3-29 (cutaneous melanoma). In words: Cell viability assay ([…]-GLO). The format is cell-based. The following applies: Homo sapiens, 60 h, read-out: IC50 in nM at 60 Hours.
Excerpt: as §1, §2

Data set [4] relates to H9-dtomato-luciferase tumor. In words: Efficacy study, xenograft bioluminescence imaging. The format is in vivo, NOD.Cg-Prkdcscid Il2rgtm1Wjl/SzJ mice (human H9 xenografts). To be noted: 2 mg/kg IP on days 1, 4, 8, 11; after day 17 of engraftment. From the text: FIG. 15. Efficacy study using NanoRomidepsin PDLLA. […] In vivo, BLI images were acquired to determine the response after the romidepsin and NanoRomidepsin PDLLA treatment. All cohorts were imaged on days 7, 10, 14, and 17 days (arrows) after post-engraftment using Lago X Spectrum Imaging System before the administration of drugs. After acquisition of images, a mean BLI curve of human H9 xenografts was generated where the y axis represents total flux (photon/s) and x axis represents time (Days) function.
On the technique in general: Xenograft models place foreign cells or tissue in a host animal.

Data set [5] in a line: Single dose toxicity study (MTD). The format is in vivo, mice. The following applies: female, mouse, in vivo, BALB/c mice. As for the experimental part:
(§3) In vivo studies. For single dose toxicity study, five to seven-week old female BALB/c mice were chosen for the MTD study. Animals were randomly assigned to dose groups based on body weight. […] Mice were divided into two cohorts for Nano-romidepsin (NanoRomi) and free romidepsin. Each cohort was divided into sub-cohorts. Each sub cohort (n=5) received a single treatment of following doses: 1, 2, 3, 5, and 8 mg/kg body weight by intreaperitoneal (IP) and intravenous (IV) route of administration. NanoRomi was diluted under sterile conditions in phosphate buffered saline (PBS). Romidepsin was prepared in DMSO and then diluted with PBS under sterile condition. […] The mice were monitored for 7 days after the last treatment. For single dose and repeated dose toxicity study, we used two endpoints: weight loss and clinical score. Clinical signs were scored by observing activity, appearance (hair coat and eyes/nose), posture, and body condition with a maximum of 3 points going to each (0, normal; 1 slight deviation from normal; 2, moderate deviation from normal, 3, severe deviation from normal). Euthanasia criteria included weight loss either >20% weight loss or reached a clinical score >6.

The subject of the next data set is BALB/c mice. As to the kind of experiment: Single dose toxicity study (MTD). The format is in vivo. As for the experimental part: as §3
For data set [6], the system named is human CLL, PLL, T cell lymphoma, esophageal and pancreatic cancer and multiple myeloma cells. The following applies: in vitro; cited from earlier work.
Setting [7] is: single agent, pivotal trial cited per drug (romidepsin: trial (6)).

As a reminder, the IC50 is the concentration needed to halve the response being measured. Regarding `C/C=C1\NC(=O)[C@H]2CSSCC/C=C/[C@H](CC(=O)N[C@H](C(C)C)C(=O)N2)OC(=O)[C@H](C(C)C)NC1=O` [Romidepsin, (1S,4S,7Z,10S,16E,21R)-7-Ethylidene-4,21-diisopropyl-2-oxa-12,13-dithia-5,8,20,23-tetrazabicyclo[8.7.6]tricos-16-ene-3,6,9,19,22-pentone], the “Outcomes: ORR” value with PTCL (single agent, pivotal trial cited per drug (romidepsin: trial (6) Coiffier et al., 2014)) is recorded as 25%; in the data set on PTCL (trial (7) Piekarz et al., 2011) it was 38%. Also, the “Outcomes: CR” value in the data set with PTCL (setting [7]) was 15%; in the data set on PTCL (trial (7) Piekarz et al., 2011), 18%. For the same compound, the “Outcomes: DOR” value is 28 months in the data set on PTCL (setting [7]) and 8.9 months in the data set with PTCL (trial (7) Piekarz et al., 2011). Also, the “response, share of patients” value in the data set with PTCL (single agent) is 25%; in the data set with PTCL (single agent, listed as romidepsin), “about 25%”. For the same compound, the IC50 was found to be 1.6 nM with FEPD (ALCL); 1.9 nM in data set [1]; 0.7 nM in the data set with TL-1 (LGL leukemia); 0.7 nM in data set [2]; 1.4 nM in the data set on H9 (CTCL); 1.3 nM in the data set with HH (CTCL). In addition, the figures for the IC50 (in the data set with SUP-M2 (ALK-ALCL); in data set [3]) were 1.6 nM and 0.6 nM, respectively. Besides, the “tumor response (BLI) compared to the control and ghost nanoparticle group” value in [4] is listed as “cytostatic effect”. The MTD in data set [5] (intraperitoneal (IP)) is 5 mg/kg; in data set [5] (intravenous (IV), highest dose tested 8 mg/kg), over 8 mg/kg. In the data set with BALB/c mice (after first 7 days of treatment), the clinical score entry is given as “equivalent clinical score”. Further, the “dose at which mice reached humane endpoints” value in the data set with BALB/c mice (intraperitoneal (IP)) came out at 8 mg/kg. Besides, the “concentrations at which anti-proliferative and pro-apoptotic activity was seen” value in [6] was 1 to 500 nM.
